# Measured values published in ChEMBL document CHEMBL1201862, “PubChem BioAssay data set” (2004).
# Calls of active or inactive are those of the source.
# Tests used:
# [1] = target: T1, Adenosylmethionine-8-amino-7-oxononanoate aminotransferase (Mycobacterium tuberculosis, UniProt P9WQ81); test: Mycobacterium tuberculosis BioA enzyme inhibitor Measured in Biochemical System Using Plate Reader - 2163-02_Inhibitor_Dose_CherryPick_Activity.; type: functional, Mycobacterium tuberculosis UT205
# T1 sequence (P9WQ81 whole entry): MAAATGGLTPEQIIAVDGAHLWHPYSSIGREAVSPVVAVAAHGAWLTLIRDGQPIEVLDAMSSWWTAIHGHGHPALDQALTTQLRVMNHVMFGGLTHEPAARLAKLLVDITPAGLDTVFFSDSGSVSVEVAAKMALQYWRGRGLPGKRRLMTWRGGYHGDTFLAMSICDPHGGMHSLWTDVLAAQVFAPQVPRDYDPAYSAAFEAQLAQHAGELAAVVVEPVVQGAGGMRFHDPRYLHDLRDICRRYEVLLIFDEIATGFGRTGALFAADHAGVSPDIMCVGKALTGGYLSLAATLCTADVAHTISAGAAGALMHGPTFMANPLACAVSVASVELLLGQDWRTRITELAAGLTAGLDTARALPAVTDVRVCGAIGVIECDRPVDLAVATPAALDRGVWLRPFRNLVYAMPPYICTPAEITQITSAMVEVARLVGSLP
# Escherichia coli = test: microbe, parasite or virus in culture
# [2] = fluconazole-exposed Candida albicans growth modulators – fluorescence, retest, confirmation (AID 2467); type: functional, cell-based
# [3] = NIH-3T3 fibroblast cytotoxicity, dose response, cytotoxicity control, cell-based, fluorescence, Alamar Blue, secondary assay (AID 2327); type: functional;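 note: NIH-3T3 mouse fibroblasts cultured with fluconazole at 8 µg/mL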
# [4] = target: Heat shock protein HSP 90-alpha (Homo sapiens, UniProt P07900); type: functional, organism-based
# HEK293 = test: EBV LMP1 TES2 canonical NF-kB signalling blockers – cell-based, HEK293, luciferase, cherry-pick, dose response (AID 588343); type: functional; conditions: Homo sapiens
# Cysteine protease ATG4B = target: T2, Cysteine protease ATG4B (Homo sapiens, UniProt Q9Y4P1); type: functional;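 note: Fluorescence-based dose-response confirmation assay measuring inhibition of ATG4B activity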
# T2 sequence (Q9Y4P1 whole entry): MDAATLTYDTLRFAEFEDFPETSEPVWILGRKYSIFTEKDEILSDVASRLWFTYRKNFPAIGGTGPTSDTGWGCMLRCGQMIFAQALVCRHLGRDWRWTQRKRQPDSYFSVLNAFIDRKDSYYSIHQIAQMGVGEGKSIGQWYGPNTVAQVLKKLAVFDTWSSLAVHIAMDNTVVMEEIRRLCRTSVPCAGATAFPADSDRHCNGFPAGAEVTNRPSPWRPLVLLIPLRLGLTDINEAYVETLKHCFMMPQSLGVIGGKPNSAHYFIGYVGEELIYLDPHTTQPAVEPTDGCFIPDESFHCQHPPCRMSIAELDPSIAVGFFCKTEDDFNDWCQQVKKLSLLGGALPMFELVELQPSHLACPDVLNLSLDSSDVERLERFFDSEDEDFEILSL
# Phospholipase A2 = Phospholipase A2 (Homo sapiens, UniProt P04054); type: functional;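 note: confirmatory dose-response counterscreen on phospholipase A2, testing hits that came from an ultra-high-throughput screen for ATG4B inhibitors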
# Chain of Phospholipase A2 (P04054 whole entry): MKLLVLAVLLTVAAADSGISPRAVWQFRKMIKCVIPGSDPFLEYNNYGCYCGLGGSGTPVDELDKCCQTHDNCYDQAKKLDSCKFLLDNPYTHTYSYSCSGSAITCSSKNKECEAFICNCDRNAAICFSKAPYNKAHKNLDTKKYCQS
# HeLa = test: ATP-based viability loss in HeLa cells – cell-based, CellTiter-Glo luminescence, cherry-pick samples, cytotoxicity control for MITF activator project, dose response (AID 540259); type: functional; conditions: Homo sapiens
# [5] = non-specific 3'UTR reporter inhibition in Clone20-Shn3RL – cell-based, Renilla luciferase, cherry-picked, counter-screen for Shn3 inhibitor project, dose response (AID 624133); type: functional
# [6] = target: FAD-linked sulfhydryl oxidase ALR (Homo sapiens, UniProt P55789); test: ALR-catalysed DTT oxidation blockers – biochemical, H2O2 detection, luminescence, cherry-pick, dose response (AID 493248)
# Chain of FAD-linked sulfhydryl oxidase ALR (P55789 whole entry): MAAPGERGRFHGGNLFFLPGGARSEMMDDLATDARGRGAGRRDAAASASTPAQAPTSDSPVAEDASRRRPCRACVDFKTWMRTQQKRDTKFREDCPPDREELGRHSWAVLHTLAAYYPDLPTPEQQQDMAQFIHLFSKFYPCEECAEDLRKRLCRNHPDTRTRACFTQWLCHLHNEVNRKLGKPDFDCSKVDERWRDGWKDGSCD
# [7] = reduction of Shn3 3'UTR-driven luciferase in osteoblasts – cell-based, Clone20 osteoblasts, firefly luciferase, cherry-picked, dose response (AID 624132); type: functional;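 note: firefly luciferase luminescence from reporter carrying the Shn3 3'UTR in osteoblasts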
# [8] = alpha-synuclein stem-loop luciferase translation blockers – H4 neuroglioma cells, luminescence, confirmation (AID 1988); type: functional, cell-based
# [9] = luciferase reporter signal suppression in cells – H4 neuroglioma cells, luminescence, dose response (AID 1990); type: functional, cell-based
# [10] = Luminescence Cell-Based Dose Response HTS to Identify Inhibitors of 5'UTR Stem-Loop Driven Prion Protein mRNA Translation in H4 Neuroglioblastoma Cells. [Related pubchem assays: 1827 (Project Summary), 1813 (Primary HTS)]; type: functional
# Nonstructural protein 1 = Nonstructural protein 1 (Influenza A virus, UniProt Q194T2); type: functional, Influenza A virus (A/California/07/2009(H1N1))
# Chain of Nonstructural protein 1 (Q194T2 whole entry): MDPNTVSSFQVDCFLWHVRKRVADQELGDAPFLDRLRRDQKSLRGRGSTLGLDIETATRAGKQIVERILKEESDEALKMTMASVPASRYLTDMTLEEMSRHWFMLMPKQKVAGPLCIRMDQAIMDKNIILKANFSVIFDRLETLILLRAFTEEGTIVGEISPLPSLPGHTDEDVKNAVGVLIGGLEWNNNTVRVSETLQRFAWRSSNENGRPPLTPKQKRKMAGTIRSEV
# [11] = loss of viability in HepG2 cells – cell-based, CellTiter-Glo, cherry-picked, cytotoxicity control for Shn3 inhibitor project, dose response (AID 624134); type: functional
# [12] = target: T3, Corticotropin-releasing factor receptor 2/Corticotropin-releasing factor-binding protein (Homo sapiens, UniProt P24387+Q13324); test: activators of CRF receptor 2 with binding protein – uHTS hits, confirmation (AID 602473); type: functional; conditions: read-out: EC50_Mean
# T3 sequence (Q13324 whole entry): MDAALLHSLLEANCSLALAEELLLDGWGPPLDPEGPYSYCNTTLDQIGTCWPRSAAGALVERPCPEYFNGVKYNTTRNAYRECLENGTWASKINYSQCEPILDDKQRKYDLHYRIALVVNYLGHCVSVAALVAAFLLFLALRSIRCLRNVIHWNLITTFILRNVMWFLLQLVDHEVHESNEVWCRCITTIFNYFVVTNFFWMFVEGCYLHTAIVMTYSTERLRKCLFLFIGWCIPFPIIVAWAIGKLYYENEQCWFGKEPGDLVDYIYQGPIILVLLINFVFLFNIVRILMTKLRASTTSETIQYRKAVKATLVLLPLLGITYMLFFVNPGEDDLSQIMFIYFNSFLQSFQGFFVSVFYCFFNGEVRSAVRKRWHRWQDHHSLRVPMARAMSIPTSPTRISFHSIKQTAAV
# T3 sequence (P24387 whole entry): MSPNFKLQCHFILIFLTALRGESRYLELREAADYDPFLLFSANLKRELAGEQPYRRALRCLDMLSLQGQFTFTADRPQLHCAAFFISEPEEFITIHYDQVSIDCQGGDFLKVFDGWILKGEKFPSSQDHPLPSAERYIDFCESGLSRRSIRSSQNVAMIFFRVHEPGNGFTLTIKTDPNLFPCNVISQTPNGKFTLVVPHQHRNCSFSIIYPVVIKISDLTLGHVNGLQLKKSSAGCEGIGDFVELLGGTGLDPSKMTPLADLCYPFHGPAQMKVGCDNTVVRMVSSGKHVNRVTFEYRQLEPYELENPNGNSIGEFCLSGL
# [13] = tested on: Streptococcus sp. 'group A'; test: Streptococcus pyogenes SK(-)GAS viability under kanamycin – luminescence, BacTiterGlo, confirmation, counter-screen for streptokinase expression inhibitor project, dose response (AID 1900); type: functional, organism-based
# [14] = CCR5-tropic HIV-1 fusion blockers – cell-based, CCR5-tropic Env, dose response (AID 2279); type: functional
# Streptococcus = test: GAS UMAA2166 growth inhibition – luminescence, BacTiterGlo, counter-screen for streptokinase expression inhibitor project, dose response (AID 1915); type: functional, organism-based;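 note: potency for reduction of bacterial viability or growth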
# Streptokinase A = target: T4, Streptokinase A (Streptococcus pyogenes serotype M1, UniProt P10520); test: viability-normalized secreted streptokinase activity reduction – plasminogen activation absorbance, OD405, dose response (AID 1914); type: functional, Streptococcus pyogenes M1 GAS;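 note: secreted streptokinase activity via plasminogen activation per viability signal from cell pellet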
# T4 sequence (P10520 whole entry): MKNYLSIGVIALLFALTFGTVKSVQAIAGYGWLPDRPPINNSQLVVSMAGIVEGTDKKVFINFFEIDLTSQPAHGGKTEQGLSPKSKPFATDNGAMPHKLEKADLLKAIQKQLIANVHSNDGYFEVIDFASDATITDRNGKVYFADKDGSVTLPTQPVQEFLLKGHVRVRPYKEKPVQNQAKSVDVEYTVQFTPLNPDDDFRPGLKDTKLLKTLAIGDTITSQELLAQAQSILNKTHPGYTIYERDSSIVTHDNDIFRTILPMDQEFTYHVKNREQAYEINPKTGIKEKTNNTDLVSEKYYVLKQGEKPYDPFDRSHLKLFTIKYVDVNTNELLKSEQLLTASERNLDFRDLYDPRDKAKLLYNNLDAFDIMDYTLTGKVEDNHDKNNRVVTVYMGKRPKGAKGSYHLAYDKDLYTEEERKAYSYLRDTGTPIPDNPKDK
# [15] = NIH3T3 cell viability loss – ATP luminescence, mouse fibroblasts, counter-screen, dose response (AID 2010); type: functional, cell-based;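 note: cells exposed to compound for about 90 hours before reading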
# [16] = Trypanosoma cruzi growth suppression in host cells – NIH3T3 host cells, beta-gal luminescence, confirmation (AID 2044); type: functional, cell-based;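 note: intracellular parasites grown in NIH/3T3 mouse fibroblasts as host cells; luminescent beta-galactosidase reporter signal from transgenic T. cruzi replicating inside host cells; inhibitors lower the luminescence signal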
# [17] = target: Glucose-6-phosphate 1-dehydrogenase (Homo sapiens, UniProt P11413); test: inhibition of Homo sapiens G6PD, dose series – biochemical, fluorescence, selectivity assay for P. falciparum G6PD inhibitor project, dose response (AID 504792); type: functional
# Chain of Glucose-6-phosphate 1-dehydrogenase (P11413 whole entry): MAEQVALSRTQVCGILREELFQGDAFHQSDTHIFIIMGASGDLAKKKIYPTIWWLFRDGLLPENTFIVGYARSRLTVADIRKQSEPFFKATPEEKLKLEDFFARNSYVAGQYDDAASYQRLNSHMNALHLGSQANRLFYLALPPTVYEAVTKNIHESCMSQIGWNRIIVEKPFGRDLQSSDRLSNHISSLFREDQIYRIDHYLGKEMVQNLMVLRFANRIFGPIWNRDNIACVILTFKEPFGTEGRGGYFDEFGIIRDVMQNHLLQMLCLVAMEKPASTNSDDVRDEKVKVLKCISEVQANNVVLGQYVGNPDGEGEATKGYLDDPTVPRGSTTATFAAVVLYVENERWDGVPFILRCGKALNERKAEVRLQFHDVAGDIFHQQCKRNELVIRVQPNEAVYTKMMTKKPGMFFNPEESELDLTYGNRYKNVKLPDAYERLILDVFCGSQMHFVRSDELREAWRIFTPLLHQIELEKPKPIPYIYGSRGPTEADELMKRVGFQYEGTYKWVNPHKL
# [18] = target: T5, Mannose-6-phosphate isomerase (Homo sapiens, UniProt P34949); test: MPI inhibition at elevated mannose 6-phosphate – biochemical, fluorescence intensity, high mannose 6-phosphate, primary screen (AID 1220)
# T5 sequence (P34949 whole entry): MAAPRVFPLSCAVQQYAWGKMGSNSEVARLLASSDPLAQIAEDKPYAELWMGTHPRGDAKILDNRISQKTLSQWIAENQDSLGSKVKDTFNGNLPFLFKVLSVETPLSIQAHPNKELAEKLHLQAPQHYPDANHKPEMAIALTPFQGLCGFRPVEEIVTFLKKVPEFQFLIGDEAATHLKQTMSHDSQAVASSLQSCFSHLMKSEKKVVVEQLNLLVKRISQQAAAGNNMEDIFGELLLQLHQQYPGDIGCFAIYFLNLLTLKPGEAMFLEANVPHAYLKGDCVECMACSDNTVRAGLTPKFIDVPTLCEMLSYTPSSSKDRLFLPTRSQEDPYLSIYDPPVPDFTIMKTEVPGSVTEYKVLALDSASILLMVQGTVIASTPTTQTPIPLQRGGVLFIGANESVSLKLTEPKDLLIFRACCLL
# Vero = test: cells; type: functional; conditions: Chlorocebus sabaeus
# INS1 = test: INS-1E survival protection against cytokine death – cell-based, luminescence, retest, dose response (AID 449756); type: functional; conditions: Rattus norvegicus;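 note: cell death triggered by IL-1 beta plus TNF-alpha plus IFN-gamma mixture; protective hits raise ATP signal compared with cytokine alone wells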
# [19] = Luminescence Cell-Based Dose Retest to Confirm Inhibitors of Cancer Stem Cells. [Related pubchem assays (depositor defined):AID2717, AID2721]; type: functional; conditions: Homo sapiens
smiles,measurement,setting,value
O=C(c1ccncc1)N1CC[C@@H]2[C@H]1c1cc(Br)ccc1N[C@@H]2CO,AC50,[1],0.894 µM (active)
COc1ccc(OC)c(S(=O)(=O)NCCc2ccccc2)c1,AC50,Escherichia coli,28.4 µM (active)
O=C(Oc1c(Cl)cc(Cl)c2cccnc12)c1cccc([N+](=O)[O-])c1,EC50,[2],0.119 µM (active)
same,EC50,[3],5.41 µM (active)
same,AC50,[4],14.3 µM (active)
same,AC50,HEK293,30.6 µM (active)
CCCOc1ccc2c3c(c(=O)oc2c1OCCC)CCC3,IC50,Cysteine protease ATG4B,11.4 µM (active)
same,AC50,[1],14.7 µM (active)
same,IC50,Phospholipase A2,7.13 µM (active)
CCCN1C(=O)C(=O)N(CC(=O)c2cc(C)n(C3CC3)c2C)C1=O,AC50,HeLa,62.6 µM (active)
O=C(c1ccncc1)N1CC[C@@H]2[C@H](CO)Nc3ccc(Br)cc3[C@@H]21,AC50,[1],1.17 µM (active)
COc1ccc2nc3ccccc3nc2c1,AC50,HeLa,73.5 µM (active)
Cc1ccc(S(=O)(=O)Nc2ccc(O)c3ncccc23)cc1,AC50,[5],0.715 µM (active)
same,EC50,[2],2.12 µM (inconclusive)
same,AC50,[6],5.2 µM (active)
same,EC50,[3],28.4 µM (active)
same,AC50,[7],1.55 µM (active)
same,EC50,[8],10.6 µM (active)
same,EC50,[9],15.1 µM (active)
same,EC50,[10],> 30 µM (not active)
same,IC50,Nonstructural protein 1,16 µM (active)
same,AC50,[11],41.4 µM (active)
COc1ccc(C=Cc2ccc3ccccc3n2)c(OC)c1,EC50,[12],> 53 µM (inactive)
same,AC50,HEK293,14.5 µM (active)
O=C(O)c1cc(-c2ccc(-c3c(-c4ccc5c(c4)OCO5)noc3-c3ccsc3)cc2)nc2ccccc12,IC50,Cysteine protease ATG4B,6.81 µM (active)
same,EC50,[13],1.85 µM (active)
same,AC50,HeLa,52.5 µM (active)
same,IC50,[14],37.7 µM (active)
same,EC50,Streptococcus,3.63 µM (active)
same,IC50,Phospholipase A2,2.26 µM (active)
same,EC50,Streptokinase A,> 150 µM (not active)
CCOc1cc(CNCc2ccccc2)ccc1OCc1ccc(Cl)cc1,AC50,[5],5.41 µM (active)
same,AC50,[7],6.69 µM (active)
same,EC50,[15],> 16 µM (not active)
same,AC50,[11],19.7 µM (active)
same,EC50,[16],2.88 µM (active)
C=CCOc1ccc(CNc2ccc3[nH]c(O)nc3c2)cc1OC,IC50,[17],53.4 µM (inactive)
same,IC50,[18],> 50 µM (not active)
CCc1ccc2c(c1)C(c1ccc([N+](=O)[O-])cc1)=NNC(c1ccccc1)=N2,IC50,Cysteine protease ATG4B,0.399 µM (active)
same,IC50,Phospholipase A2,0.357 µM (active)
O=C(NCc1nc(-c2ccc(C(F)(F)F)cc2)no1)Nc1cc(Cl)cc(Cl)c1,CC50,Vero,8.95 µM (active)
same,EC50,[13],2.88 µM (active)
same,AC50,INS1,7.49 µM (active)
same,AC50,[19],1.53 µM (active)
same,EC50,[15],4.69 µM (active)
same,EC50,Streptococcus,8.49 µM (active)
same,EC50,Streptokinase A,> 150 µM (not active)
same,EC50,[16],2.43 µM (active)
C[C@@H]1C(c2ccc(F)cc2)=NN(c2ccccc2)[C@H]1C(=O)N1CCOC1=O,AC50,Escherichia coli,33.5 µM (active)
CN1CCC(=NNC(=O)C(=O)Nc2cccc(Br)c2)CC1,AC50,Escherichia coli,65.2 µM (active)
O=C(COC(=O)Cn1cnc2ccccc2c1=O)NCC12CC3CC(CC(C3)C1)C2,AC50,Escherichia coli,32.8 µM (active)
CCc1cc(-c2nnn(CCC3COCCO3)c2CC)ccc1-c1cn(Cc2ccccc2)nn1 (configuration not stated),CC50,Vero,23.7 µM (active)
